{"source": "patent US20230210738A1", "about": "“Low-Skin Irritating Deodorant Composition And A Method For Preparing Thereof” (Sislan (Zhuhai) Pharmaceutical Technology Co. Ltd., priority 2021, published 2023)", "origin": "cited, not measured here", "key": {"[1]": {"settings": "hexamine as weak base"}, "bacteria": {"tested_on": "bacteria", "settings": "hexamine prepared in basic condition"}}}
{"molecule": "C1N2CN3CN1CN(C2)C3", "note": "[hexamine, hexamethylenetetramine]", "values": [{"measurement": "neutralization of odoriferous, volatile organic acids", "setting": "[1]", "value": "able to neutralize a number of odoriferous, volatile organic acids"}, {"measurement": "antibacterial effect", "setting": "bacteria", "value": "capable of demonstrating an antibacterial effect"}]}
